According to patent publication US20060134048A1, “Reduction of hair growth” (priority 2004, published 2006):

Experiments:
Human hair follicles = experiment: Human hair follicle growth assay; type: cell-based; conditions: 24 hours pre-incubation with 0.1 mM caffeine, then laser 0.75W for 100 msec; hair shaft growth after four to six days
Protocol: Human Hair Follicle Growth Assay:
Human hair follicles in growth phase (anagen) were isolated from face-lift tissue (obtained from plastic surgeons) under dissecting scope using a scalpel and watchmakers forceps. The skin was sliced into thin strips exposing 2-3 rows of follicles that could readily be dissected. Follicles were placed into 0.5 ml William's E medium (Life Technologies, Gaithersburg, Md.) supplemented with 2 mM L-glutamine, 10 μg/ml insulin, 10 ng/ml hydrocortisone, 100 units of penicillin, 0.1 mg/ml streptomycin and 0.25 μg/ml amphotericin B. The follicles were incubated in 24-well plates (1 follicle/well) at 37° C. in an atmosphere of 5% CO2 and 95% air. The HSP inhibitor or compound that promotes apoptosis is dissolved into dimethyl sulfoxide as 100-fold stock solution. […] The length of hair follicle was assessed using an image analysis software system. The growth of hair fiber was calculated by the subtracting the follicle length on day 0 from that determined on day 7.
Hair follicles were pre-incubated for 24 hours with 0.1 mM concentration of caffeine, and then some of the follicles were laser treated at 0.75W for 100 msec using a Coherent diode laser system. The length of each follicle was measured and the follicles then were placed in a 37° C. incubator for four to six days. Following incubation the hair shaft growth was measured.

hamster flank organs = experiment: Golden Syrian Hamster assay; type: in vivo, Golden Syrian hamsters
Protocol: To evaluate the effectiveness of a composition in reducing hair growth (including when used in conjunction with heating), the flank organs of each of a group of hamsters are depilated by applying a thioglycolate based chemical depilatory (Surgex) and/or shaved. To one organ of each animal 10 μl. of vehicle alone once a day is applied, while to the other organ of each animal an equal amount of vehicle containing the HSP inhibitor or compound that promotes apoptosis under evaluation is applied. After three weeks of topical applications (one application per day for five days a week), with heating at a selected time(s) if the composition is used in conjunction with heating) the flank organs are shaved and the amount of recovered hair (hair mass) from each is weighed. Percent-reduction of hair growth is calculated by subtracting the hair mass (mg) value of the test compound treated side from the hair mass value of the vehicle treated side; the delta value obtained is then divided by the hair mass value of the vehicle treated side, and the resultant number is multiplied by 100. A composition including a vehicle 15% DMSO, 65% ethanol, 10% propylene glycol, and 10% di-propylene glycol and 5% quercetin by weight was tested in the Golden Syrian Hamster assay. […]

| Structure (SMILES) | reduction in hair growth compared with the control group (Human hair follicles) | hair growth inhibition (hamster flank organs; 5% quercetin for four days prior to 15W/0.75 sec laser, compared to flank organs given the same laser pulse without quercetin pretreatment) | hair growth inhibition (hamster flank organs; 5% quercetin topical only, three weeks, compared to vehicle control flank organs) |
| --- | --- | --- | --- |
| Cn1c(=O)c2c(ncn2C)n(C)c1=O [caffeine] | significant reduction in hair growth |  |  |
| O=c1c(O)c(-c2ccc(O)c(O)c2)oc2cc(O)cc(O)c12 [quercetin] |  | 36% | 15% |
